Measured values reported in patent US20100273700A1, “USE OF A PEPTIDE AS A THERAPEUTIC AGENT” (priority 2007, published 2010).

Tested on: drug-resistant Mycobacterium tuberculosis
Conditions: 5 micrograms per ml

In the case of `CC(C)C[C@H](NC(=O)[C@H](Cc1ccccc1)NC(=O)CNC(=O)CNC(=O)[C@@H](N)Cc1ccc(O)cc1)C(=O)N[C@@H](CCCNC(=N)N)C(=O)N[C@@H](CCCNC(=N)N)C(=O)N[C@@H](CCC(N)=O)C(=O)N[C@@H](Cc1ccccc1)C(=O)N[C@@H](CCCCN)C(=O)N[C@H](C(=O)N[C@H](C(=O)N[C@H](C(=O)O)[C@@H](C)O)C(C)C)C(C)C` [Dynorphin B], the “% inhibition” value is reported as 0.0%.
